Ten compounds from patent US8404678B2, “Cytotoxic agents comprising new tomaymycin derivatives and their therapeutic use” (priority 2007, dated 2013) can be followed below.

Like-named read-outs stand apart in the source and are kept apart here.

Holding throughout (format): cell-based
One experiment has as its system Ramos cells. The experiment can be described thus: In vitro viability assay (WST-8). The procedure: (§1) Samples of free tomaymycin derivative or tomaymycin derivative conjugate are added to a 96-well flat bottomed tissue culture plate and titrated using serial dilutions ranging from 1×10^−12 M to 3×10^−7 M. Antigen positive tumor cells or antigen negative tumor cells are added to the wells in such a way that there are triplicate samples for each drug concentration for each cell line. […]
[…] The absorbance in each well of the plates is then measured using the Molecular Devices plate reader at 450 nm. Surviving fraction of cells at each concentration of tomaymycin derivative or conjugate are plotted.
(§2) The cytotoxicity of the compounds and their specificity vs. the conjugates of the invention against MOLT-4, BJAB, HL60/QC, HL60/ATCC and Ramos cell lines were tested. Results are illustrated in FIGS. 1, 2, 3, 6 and 8.

The test system of the next experiment is HL60/ATCC cells. The experiment can be described thus: In vitro viability assay (WST-8). Here is the method:
as §1
(§3) At the end of the incubation period, 20 μl of the tetrazolium reagent WST-8 (2-(2-methoxy-nitrophenyl)-3-(4-nitrophenyl)-5-(2,4-disulfophenyl)-2-tetrazolium, monosodium salt) is added to each well, and the plates are returned to the incubator for 2 hours. The absorbance in each well of the plates is then measured using the Molecular Devices plate reader at 450 nm. Surviving fraction of cells at each concentration of tomaymycin derivative or conjugate are plotted.
as §2
Background: Formazan colour is commonly taken as a measure of viable cells.

The test system of a further experiment is HL60/QC cells. The experiment can be described thus: In vitro viability assay (WST-8). The settings on record: Homo sapiens. The procedure: (§4) Samples of free tomaymycin derivative or tomaymycin derivative conjugate are added to a 96-well flat bottomed tissue culture plate and titrated using serial dilutions ranging from 1×10^−12 M to 3×10^−7 M. Antigen positive tumor cells or antigen negative tumor cells are added to the wells in such a way that there are triplicate samples for each drug concentration for each cell line. The plates are incubated at 37° C. in an atmosphere of 5% CO2 for 4 days.
as §3, §2

The test system of the next experiment is MDA-MB-231 cells. The experiment can be described thus: Continuous exposure clonogenic assay. To be noted: Homo sapiens. The procedure:
(§5) MDA-MB-231 cells were plated at 3000 cells per well in two separate 6-well plates; PC-3 and SK-MEL-28 cells were plated at 2000 cells per well in 2 separate plates. The test article(s) were added to give final concentrations of 0, 5×10^−13, 5×10^−12, 5×10^−11, 5×10^−10 and 5×10^−9 M per well (or similar dosage range) to each plate. For example, when cells are plated in 1 mL, and 1 mL of a 2× concentration of the test compound or conjugate is added to the appropriate wells to give the final desired concentration in 2 mls. The final solution of the test article was made in the same medium as the cell line; therefore, different dilutions of conjugate had to be made for each different cell line. The plates are placed in an incubator at 37° C. in 5% CO2. Cell growth is monitored and when cells in the “0” (control) wells had formed colonies but were not confluent, usually 7 days for these cell lines, the supernatant was removed by aspiration. The cells were washed once with PBS (Phosphate Buffer Solution) and the supernatant aspirated. To each well, 0.5 ml per well of a 0.1% crystal violet/10% formalin/PBS was added. The plates were incubated at room temperature for 10-15 minutes. The supernatant was aspirated and the wells washed 3 times with distilled H2O, and then air dried. Colonies in each well were counted and the number of colonies in each dosed well was divided by the number of colonies in the “0” well to give the surviving fraction. IC50 values were then calculated from the data.

The test system of a further experiment is PC-3 cells. The experiment can be described thus: Continuous exposure clonogenic assay. To be noted: Homo sapiens. The procedure:
as §5

The test system of the next experiment is SK-MEL-28 cells. The experiment can be described thus: Continuous exposure clonogenic assay. To be noted: Homo sapiens. The procedure:
as §5

The next experiment relates to various cell-lines. The experiment can be described thus: In vitro cytotoxicity, cell line not named. To be noted: FIG. 3; IGP08-OMe compared with IGP08. The procedure: as §4
At the end of the incubation period, 20 μl of the tetrazolium reagent WST-8 (2-(2-methoxy-nitrophenyl)-3-(4-nitrophenyl)-5-(2,4-disulfophenyl)-2-tetrazolium, monosodium salt) is added to each well, and the plates are returned to the incubator for 2 hours. The absorbance in each well of the plates is then measured using the Molecular Devices plate reader at 450 nm. […]
MDA-MB-231 cells were plated at 3000 cells per well in two separate 6-well plates; PC-3 and SK-MEL-28 cells were plated at 2000 cells per well in 2 separate plates. […] Cell growth is monitored and when cells in the “0” (control) wells had formed colonies but were not confluent, usually 7 days for these cell lines, the supernatant was removed by aspiration. […] Colonies in each well were counted and the number of colonies in each dosed well was divided by the number of colonies in the “0” well to give the surviving fraction. IC50 values were then calculated from the data.

Where [1] appears, read: Homo sapiens, Ramos, read-out: In vitro data (IC50) Ramos.
The mark [2] stands for this setting: Homo sapiens, HL-60, read-out: In vitro data (IC50) HL60/ATCC.
Setting [3] is: HL-60, read-out: In vitro data (IC50) HL60/QC.
Where [4] appears, read: MDA-MB-231, read-out: In vitro data (IC50) MDA-MB-231.
Setting [5] is: PC-3, read-out: In vitro data (IC50) PC-3.
The mark [6] stands for this setting: SK-MEL-28, read-out: In vitro data (IC50) SK-MEL-28.

As for `C=C1C[C@H]2C=Nc3cc(OCc4cc(COc5cc6c(cc5OC)C(=O)N5C/C(=C/C)C[C@H]5C=N6)cc(OCC(=O)OC)c4)c(OC)cc3C(=O)N2C1`, the IC50 in the experiment on Ramos cells (setting [1]) came to 1.4 pM; in the experiment with HL60/ATCC cells (setting [2]), 12 pM.
In the case of `C/C=C1\C[C@H]2C=Nc3cc(OCc4cc(COc5cc6c(cc5OC)C(=O)N5C/C(=C/C)C[C@H]5C=N6)cc(OCCCC(=O)O)c4)c(OC)cc3C(=O)N2C1`, the IC50 in the experiment with HL60/QC cells (setting [3]) was found to be 1200 pM; with Ramos cells (setting [1]), 580 pM; in the experiment on HL60/ATCC cells (setting [2]), 2000 pM.
Take `C/C=C1\C[C@H]2C=Nc3cc(OCc4cc(C#CCCCC(=O)OC)cc(COc5cc6c(cc5OC)C(=O)N5C/C(=C/C)C[C@H]5C=N6)c4)c(OC)cc3C(=O)N2C1`: the IC50 amounted to 1.2 pM in the experiment on Ramos cells (setting [1]); 2.2 pM in the experiment with HL60/ATCC cells (setting [2]); 12 pM in the experiment with MDA-MB-231 cells (setting [4]); 27 pM with PC-3 cells (setting [5]); 15 pM with SK-MEL-28 cells (setting [6]).
With `C/C=C1\C[C@H]2C=Nc3cc(OCc4cc(COc5cc6c(cc5OC)C(=O)N5C/C(=C/C)C[C@H]5C=N6)cc(OCCOCCOCCOCCC(=O)OC)c4)c(OC)cc3C(=O)N2C1`, the IC50 with HL60/ATCC cells (setting [2]) worked out at 12 pM; in the experiment with MDA-MB-231 cells (setting [4]), 16 pM; in the experiment with PC-3 cells (setting [5]) it was 7.4 pM; in the experiment on SK-MEL-28 cells (setting [6]) it was 9.7 pM.
For the compound `C/C=C1\C[C@H]2C=Nc3cc(OCc4cc(OCCOCCOCCOCCC(=O)OC)cc(COc5cc6c(cc5OC)C(=O)N5C/C(=C/C)C[C@H]5C=N6)n4)c(OC)cc3C(=O)N2C1`, the figures for the IC50 in the experiment on MDA-MB-231 cells (setting [4]), in the experiment with PC-3 cells (setting [5]) and with SK-MEL-28 cells (setting [6]) were 8 pM, 500 pM and 71 pM, respectively.
On to `C/C=C1\C[C@H]2C=Nc3cc(OCc4cc(OCCCC(=O)OC)cc(COc5cc6c(cc5OC)C(=O)N5C/C(=C/C)C[C@H]5C=N6)n4)c(OC)cc3C(=O)N2C1`, for which the IC50 is 1.7 pM with MDA-MB-231 cells (setting [4]), 11 pM with PC-3 cells (setting [5]) and 8.7 pM in the experiment on SK-MEL-28 cells (setting [6]).
On to `C/C=C1\C[C@H]2C=Nc3cc(OCc4cc(COc5cc6c(cc5OC)C(=O)N5C/C(=C/C)C[C@H]5C=N6)cc(OCCN(C)C(=O)CCC(=O)OC)c4)c(OC)cc3C(=O)N2C1`, for which the figures for the IC50 in the experiment with MDA-MB-231 cells (setting [4]), in the experiment on PC-3 cells (setting [5]) and in the experiment on SK-MEL-28 cells (setting [6]) were 9 pM, 500 pM and 90 pM, respectively.
Regarding `C=C1C[C@H]2C=Nc3cc(OCc4cc(CCC(=O)OC)cc(COc5cc6c(cc5OC)C(=O)N5CC(=C)C[C@H]5C=N6)c4)c(OC)cc3C(=O)N2C1` [compound 8], the IC50 with HL60/QC cells (HL-60, unconjugated tomaymicine derivatives, HL60/QC, read-out: In vitro data (IC50) HL60/QC) was determined as 1.1 pM; in the experiment on Ramos cells (Homo sapiens, unconjugated tomaymicine derivatives, Ramos, read-out: In vitro data (IC50) Ramos), 8 pM; in the experiment with HL60/ATCC cells (Homo sapiens, HL-60, unconjugated tomaymicine derivatives, HL60/ATCC, read-out: In vitro data (IC50) HL60/ATCC), 4 pM; in the experiment with MDA-MB-231 cells (unconjugated tomaymicine derivatives, MDA-MB-231, read-out: In vitro data (IC50) MDA-MB-231), 17 pM; in the experiment on PC-3 cells (unconjugated tomaymicine derivatives, PC-3, read-out: In vitro data (IC50) PC-3), 27 pM; with SK-MEL-28 cells (unconjugated tomaymicine derivatives, SK-MEL-28, read-out: In vitro data (IC50) SK-MEL-28) it was 10 pM. Also, the “In vitro cytotoxicity potency, ester versus acid” value with various cell-lines is “higher potency”.
With `C=C1C[C@H]2C=Nc3cc(OCc4cc(CCC(=O)O)cc(COc5cc6c(cc5OC)C(=O)N5CC(=C)C[C@H]5C=N6)c4)c(OC)cc3C(=O)N2C1` [compound 9, 4-(3,5-Bis-[(S)-2-methylidene-7-methoxy-1,2,3,11a-tetrahydro-pyrrolo[2,1c][1,4]benzodiazepin-5-one-8-yloxymethyl]-phenyl)-propanoic acid], the IC50 in the experiment with HL60/QC cells (setting [3]) is 3500 pM; with Ramos cells (setting [1]), 2700 pM; in the experiment with HL60/ATCC cells (setting [2]) it was 2600 pM.
“huMy9-6—3-(2-{2-[2-(3,5-Bis-[(S)-2-eth-(E)-ylidene-7-methoxy-1,2,3,11a-tetrahydro-pyrrolo[2,1c][1,4]benzodiazepin-5-one-8-yloxymethyl]-phenoxy)-ethoxy]-ethoxy}-ethoxy)-propionyl conjugate [ex. 14]”: the IC50 was less than 10000 pM in the experiment with Ramos cells (conjugate, Ramos (Ag−) @ 2000 cells/well, 5 day exposure, WST 4.5 hours, FIG. 23, read-out: ~IC50 Ramos cells) and approximately 23 pM in the experiment with HL60/ATCC cells (conjugate, HL60/ATCC (Ag+) @ 5000 cells/well, 7 day exposure, WST 2 hours, FIG. 23, read-out: ~IC50 HL60/ATCC cells).
